In patent US20050053931A1, “Method for the diagnosis and therapy of renal cell carcinoma” (priority 2001, published 2005):
Residues, ends and D or L forms follow the SMILES beside them. *: point of attachment. Cbz = O=C(OCc1ccccc1)*

Experiments:
[1] = test system: mycNbk expression in DU145 prostate carcinoma cells; assay: Conditional expression of mycNbk after Ad-TreNbk-tTA infection (Western blot); assay type: cell-based, human; conditions: 24 h after infection with Ad-TreNbk-tTA at 25 MOI
Description: For regulable expression of the pro-apoptotic gene Nbk in human cells, an adenoviral vector based on the adenovirus serotype 5 backbone was constructed. In this construct, the E3 region was replaced by the expression cassette for the tTA and the E1 region was replaced by an expression cassette for Nbk. To allow for convenient detection of the exogenous Nbk, a myc tag was inserted at the N-terminus of the human Nbk cDNA. Constitutive expression of the tTA was achieved by putting the tTA under the control of a CMV promoter. In the absence of tetracyclin or doxycyclin the tTA fusion protein binds via the TetR portion to the TRE in the PhCMV* promoter and activates via the VP16AD portion the transcription of the mycNbk. In the presence of tetra- or doxycyclin Nbk expression is repressed and switched off.
The recombinant adenovirus Ad-TreNbk-tTA (FIG. 7A) was employed for expression of the myc tagged Nbk (mycNbk) in a doxycyclin dependent manner. […] Apart from DU145, Nbk could be strongly expressed by the use of this adenoviral vector 24 h after transduction in a panel of other carcinomas or non-epithelial tumor cells, i.e. sarcoma, glioma and other mesenchymal cell types.
Apoptosis was determined by the use of a modified cell cycle analysis technique that relies on the measurement of cellular DNA content on the single cell level by flow cytometry. […]

glioma cells = conditions: upon adenoviral Nbk gene transfer with Ad-TreNbk-tTA; cited from earlier work

SMILES	doxycyclin concentration at which Nbk expression is almost completely suppressed [1] [ng/mL]	Nbk expression levels (glioma cells)	sensitivity for Nbk-induced apoptosis (glioma cells)
C[C@H]1c2cccc(O)c2C(O)=C2C(=O)[C@]3(O)C(O)=C(C(N)=O)C(=O)[C@@H](N(C)C)[C@@H]3[C@@H](O)[C@@H]21 [doxycyclin]	≥ 10	–	–
CC(C)C[C@@H](C=O)NC(=O)[C@H](CC(C)C)NC(=O)[C@H](CC(C)C)NC(=O)OCc1ccccc1 [MG132] (Cbz-Leu-Leu-Leu-aldehyde)	–	enhanced Nbk expression levels	increased sensitivity for Nbk-induced apoptosis
